Laboratory results taken from patent US6462193B1, “Hydroxyazepanes as inhibitors of glycosidase and HIV protease” (The Scripps Research Institute, priority 1999, dated 2002).
“Also recorded” adds a separate entry of the source. Like-named read-outs stand apart in the source and are kept apart here.

Tests used:
glycosidases = assay: Glycosidase inhibition analysis, panel of glycosidases; assay type: biochemical
Description: (§1) Inhibition analyses were performed at 37° C. in 0.1 M HEPES buffer, pH=6.8, except for α-fucosidase (assayed at 37° C. in 50 mM sodium acetate buffer, pH 6.0). The amount of enzyme added in each assay was 0.05 units (0.1 units for β-galactosidase and α-fucosidase). […] Data were collected and fitted to a Michaelis-Menten curve by using the program HyperCleland for enzyme kinetics analysis (Cleland, W. W. Methods Enzymol. 1979, 63, 103).

β-galactosidase [1] = assay: Glycosidase inhibition analysis, β-galactosidase; assay type: biochemical; details: read-out: Ki as inhibitor of β-galactosidase
Description: as §1

HIV protease = molecular target: T1, HIV protease (Human immunodeficiency virus type 1 group M subtype B, UniProt P03369); assay type: biochemical, HIV-1
T1 construct: a backbone engineered HIV-1 protease was prepared by total synthesis; made in house; host or cells: total chemical synthesis (no expression host)
Description: For determination of IC50 values for HIV protease, a backbone engineered HIV-1 protease was prepared by total synthesis (Schnolzer et al. Science 1992, 256, 221) 450 nM Final concentration of the protease was added to a solution (152 μL final volume) containing tetrahydroxyazepane (inhibitor), 28 μM fluorogenic peptide substrate (Abz-Thr-Ile-Phe-(p-NO2)-Gln-Arg-NH2) (Tith et al. Int. J. Peptide Protein Res. 1990, 36, 544; Slee, et al. J. Am. Chem. Soc. 1995, 117, 11867) and 1.8% dimethyl sulfoxide in assay buffer: 100 mM MES buffer containing 0.5 mg/mL BSA (bovine serum album) at pH 5.5. A Km of 37±8 μM was reported for the synthetic HIV protease against the above fluorogenic substrate. The solution was mixed and incubated over 5 minutes at 37° C. during which time the rate of substrate cleavage was monitored by continuously recording the change in fluorescence of the assay solution. An excitation filter of 325 nm and an emission filter of 420 nm were used. For each inhibitor concentration, three measurements were carried out.

FIV protease = molecular target: T2, FIV protease (Feline immunodeficiency virus, UniProt P16088); assay: FIV protease inhibition, fluorogenic peptide substrate; assay type: biochemical
T2 construct: enzymatic activity of recombinantly derived FIV protease; made in house
Description: The inhibitory effects of compounds 60a, 60b, 64a, 64b, 65a, and 65b on the enzymatic activity of recombinantly derived FIV protease (Slee et al. J. Am. Chem. Soc. 1995, 117, 11867) were studied using a fluorogenic assay based on the enzymatic cleavage of a novel peptide based substrate [Arg-Ala-Leu-Thr-Lys(aminobenzyl)-[…]. Inhibition studies were carried out at a single substrate concentration (20 μM) in a 50 mM sodium citrate/100 mM sodium phosphate buffer (pH 5.3) containing 2% DMSO and 1M sodium chloride. The same wavelengths were used for detections. […] IC50 values were determined by least squares analysis of Dixon Plots (Dixon, M. J. Biochem. 1953, 55, 170).

[2] = molecular target: β-N-acetylglucosaminidase; details: literature value (Wong et al. 1995); read-out: Ki as inhibitor of β-N-acetylglucosaminidase; cited from earlier work
β-galactosidase [3] = details: read-out: Ki as inhibitor of β-galactosidase; literature value (Bernotas et al. 1987); cited from earlier work
[4] = molecular target: β-N-acetylglucosaminidase; assay: Glycosidase inhibition analysis, β-N-acetylglucosaminidase; assay type: biochemical; details: read-out: Ki as inhibitor of β-N-acetylglucosaminidase
Description: as §1

α-fucosidase = molecular target: T3, α-fucosidase (Bos taurus, UniProt Q2KIM0); details: literature value (Fleet et al. 1985); read-out: Ki as inhibitor of α-fucosidase; cited from earlier work
T3 sequence (Q2KIM0 23-468): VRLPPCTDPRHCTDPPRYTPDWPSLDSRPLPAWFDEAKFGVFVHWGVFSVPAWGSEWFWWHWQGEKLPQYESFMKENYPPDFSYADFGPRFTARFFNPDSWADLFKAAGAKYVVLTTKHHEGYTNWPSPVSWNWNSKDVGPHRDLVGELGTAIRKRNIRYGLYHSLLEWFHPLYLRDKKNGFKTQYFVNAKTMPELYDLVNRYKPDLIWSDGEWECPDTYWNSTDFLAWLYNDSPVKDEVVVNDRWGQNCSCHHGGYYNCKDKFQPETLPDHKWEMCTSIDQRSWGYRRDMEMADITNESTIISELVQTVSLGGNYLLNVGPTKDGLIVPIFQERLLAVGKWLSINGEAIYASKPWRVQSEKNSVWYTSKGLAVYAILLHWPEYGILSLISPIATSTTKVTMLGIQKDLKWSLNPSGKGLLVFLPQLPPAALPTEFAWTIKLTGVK

Structure (SMILES)	inhibition of the glycosidases (in words) (glycosidases)	inhibition of the HIV protease (in words) (HIV protease)	other results
CO[C@H]1CN[C@@H](CO)[C@H](O)[C@@H]1O [Compound 29, 2-O-methyl-1-deoxy-L-mannojirimycin]	None of these two azasugars exhibited significant inhibition		
O[C@H]1[C@H](O)[C@@H](O)CNC[C@@H]1O [Compound 6, (3S,4R,5R,6S)-3,4,5,6-Tetrahydroxyazepane]	inhibits all glycosidases	not inhibitors; also recorded: did not show inhibitory activities	Ki (β-galactosidase [1]): 6.5 µM
O[C@@H]1[C@@H](O)[C@@H](OCc2cccc(F)c2)CNC[C@@H]1OCc1cccc(F)c1 [Compound 60a, (3S,4R,5R,6S)-3,6-di-O-(3′-fluorobenzyl)-3,4,5,6-tetrahydroxyazepane]	not inhibitors	inhibit	IC50 against FIV protease (FIV protease): inceased compared to their inhibitory activity to the HIV protease; inhibition of FIV protease (in words) (FIV protease): active
CC(=O)N1C[C@H](O)[C@@H](O)[C@H](O)[C@H]1CO [1-deoxy-N-acetylglucojirimycin]			Ki [2]: 9.8 µM
O[C@@H]1[C@@H](O)[C@@H](OCc2cc(F)cc(F)c2)CNC[C@@H]1OCc1cc(F)cc(F)c1 [Compound 60b, (3S,4R,5R,6S)-3,6-di-O-(3′,5′-difluorobenzyl)-3,4,5,6-tetrahydroxyazepane]	not inhibitors	inhibit	Ki (HIV protease): ~350 µM; IC50 against FIV protease (FIV protease): inceased compared to their inhibitory activity to the HIV protease; inhibition of FIV protease (in words) (FIV protease): active
C[N+]1([O-])C[C@H](OCc2cccc(F)c2)[C@H](O)[C@@H](O)[C@@H](OCc2cccc(F)c2)C1 (stereo partly drawn) [Compound 65a, (3S,4R,5R,6S)-3,6-di-O-(3′-Fluorobenzyl)-N-methyl-3,4,5,6-tetrahydroxyazepane N-oxide]	not inhibitors	inhibit	
CN1C[C@H](OCc2cc(F)cc(F)c2)[C@H](O)[C@@H](O)[C@@H](OCc2cc(F)cc(F)c2)C1 [Compound 64b, (3S,4R,5R,6S)-3,6-di-O-(3′,5′-difluorobenzyl)-N-methyl-3,4,5,6-tetrahydroxyazepane]	not inhibitors	inhibit	
C[N+]1([O-])C[C@H](OCc2cc(F)cc(F)c2)[C@H](O)[C@@H](O)[C@@H](OCc2cc(F)cc(F)c2)C1 (stereo partly drawn) [Compound 65b, (3S,4R,5R,6S)-3,6-di-O-(3′,5′-difluorobenzyl)-N-methyl-3,4,5,6-tetrahydroxyazepane N-oxide]	not inhibitors	inhibit	
CN1C[C@H](OCc2cccc(F)c2)[C@H](O)[C@@H](O)[C@@H](OCc2cccc(F)c2)C1 [Compound 64a, (3S,4R,5R,6S)-3,6-di-O-(3′-Fluorobenzyl)-N-methyl-3,4,5,6-tetrahydroxyazepane]	not inhibitors	inhibit	
CO[C@@H]1CN[C@H](CO)[C@@H](O)[C@H]1O [Compound 28, 2-O-methyl-1-deoxy-D-mannojirimycin]	None of these two azasugars exhibited significant inhibition		
O[C@H]1[C@H](O)[C@@H](O)CN(Cc2ccccc2)C[C@@H]1O [Compound 8, (3S,4R,5R,6S)-N-Benzyl-3,4,5,6-tetrahydroxyazepane]	does not improve inhibition activity except in the case of α-fucosidase	not inhibitors	
OC[C@H]1NC[C@H](O)[C@@H](O)[C@H]1O [1-deoxygalactojirimycin]			Ki (β-galactosidase [3]): > 1000 µM
OC1CNCC(O)C(O)C1O [Compound 3, (3R,4R,5R,6R)-tetrahydroxyazepane]		not inhibitors; also recorded: did not show inhibitory activities	Ki [4]: 4.6 µM
C[C@@H]1NC[C@@H](O)[C@H](O)[C@@H]1O [1-deoxyfucojirimycin]			Ki (α-fucosidase): 0.005 µM
O[C@H]1[C@H](O)[C@H](O)CN(Cc2ccccc2)C[C@H]1O [Compound 7, (3R,4R,5R,6R)-N-Benzyl-3,4,5,6-tetrahydroxyazepane]	does not improve inhibition activity except in the case of α-fucosidase	not inhibitors	
